Results: ChEMBL document CHEMBL1145916, “A method for designing conformationally restricted analogues based on allylic strain: synthesis of a novel class of noncompetitive NMDA receptor antagonists having the acrylamide structure” (J Med Chem, 2003)
pIC50: −log10 of the molar value.

Target: Glutamate NMDA receptor
Assay: Binding affinity for N-methyl-D-aspartate glutamate receptor of cerebral cortical synaptic membranes from rats using [3H]MK-801 as radioligand

Row | SMILES | pIC50
1 | CCN(CC)C(=O)[C@@]1(c2ccccc2)C[C@H]1C1CCCN1 (stereo not given in full) | 6.00
2 | CCCN(CCC)C(=O)/C(=C\C1CCCN1)c1ccccc1 (stereo not given) | 6.27
3 | C=C(C)CN(CC)C(=O)/C(=C\C1CCCN1)c1ccccc1 (stereo not given) | 6.28
4 | CCCN(CC1CC1)C(=O)/C(=C\C1CCCN1)c1ccccc1 (stereo not given) | 6.13
5 | CCCN(CCC)C(=O)/C(=C\C1CCCN1)c1ccc(C)cc1 (stereo not given) | < 3.00
6 | CCCN(CCC)C(=O)/C(=C\C1CCCN1)c1ccccc1F (stereo not given) | 5.77
7 | CCCN(CCC)C(=O)/C(=C\C(N)CC)c1ccccc1 (stereo not given) | 6.28
8 | CCCCN(CCCC)C(=O)/C(=C\C1CCCN1)c1ccccc1 (stereo not given) | 5.38
9 | O=C(/C(=C\C1CCCN1)c1ccccc1)N1CCNCC1 (stereo not given) | < 3.00
10 | O=C(/C(=C\C1CCCN1)c1ccccc1)N1CCCCCC1 (stereo not given) | 4.80
11 | CCCN(CCC)C(=O)/C(=C\C1CCCN1)c1cccc(F)c1 (stereo not given) | 6.38
12 | CCCN(CCC)C(=O)/C(=C\C1CCCN1)c1ccc(F)cc1 (stereo not given) | 4.89
13 | CCN(CC)C(=O)/C(=C\C1CCCN1)c1ccccc1 (stereo not given) | 5.44
14 | CC[C@H](N)[C@@H]1C[C@@]1(C(=O)N(CC)CC)c1ccccc1 | 6.70
15 | CCCN(CCC)C(=O)/C(=C\C1CCCN1)c1ccc(OC)cc1 (stereo not given) | 3.80
